Test results published in patent US20090291983A1, “3-Oxoisoindoline-1-Carboxamide Derivatives as Analgesic Agents” (AstraZeneca AB, priority 2006, published 2009).

Biological target: T1, voltage-gated sodium channel of interest (NaV1.7) (Homo sapiens, UniProt Q15858)
T1 construct: Gene(s) encoding the full-length protein of the voltage-gated sodium channel of interest are cloned and expressed; expressed in transfected cells
Experiment: Whole-cell voltage clamp electrophysiology assay (automated patch-clamp)
Type: cell-based
Conditions: cells stably expressing the voltage-gated sodium channel
Text: Gene(s) encoding the full-length protein of the voltage-gated sodium channel of interest are cloned and expressed under a suitable promoter in a suitable cell line, as well known in the art. The so constructed stable cell lines are used in screening assays to identify suitable compounds active on voltage-gated sodium channels. Suitable screening assays are as follows.
Electrophysiological recordings of sodium currents in cells stably expressing the voltage-gated sodium channel of interest confirms activity and provides a functional measure of the potency of compounds that specifically affect such channels.
Electrophysiological studies was performed using automated patch-clamp electrophysiology platforms, like IonWorks HT, IonWorks Quattro, PatchXpress, or any other suitable platform. The cell line expressing the voltage-gated sodium channel of interest was plated in appropriate well tissue plates, as provided by the manufacturer of the automated patch-clamp platforms. Suitable extracellular and intracellular buffer for such experiments was applied according to the instructions given by the manufacturer of the automated patch-clamp platforms. Cells that express the voltage-gated sodium channel protein of interest was exposed to drugs through the pipetting system integrated in the platforms. A suitable voltage stimulus protocol was used to activate the voltage-gated sodium channel proteins of interest. A suitable stimulus protocol consisted of eight voltage pulses, each to −20 mV and 50 ms in length, and separated from each other by 330 ms intervals at a potential of −90 mV, or −65 mV.
Electrophysiological studies can also be performed using the whole cell configuration of the standard patch clamp technique as described in the literature (26). In this assay, cells that express the human voltage-gated sodium channel protein of interest are exposed to the drugs by conventional microperfusion systems and a suitable voltage stimulus protocol is used to activate the voltage-gated sodium channels.

T1 sequence (Q15858 whole entry): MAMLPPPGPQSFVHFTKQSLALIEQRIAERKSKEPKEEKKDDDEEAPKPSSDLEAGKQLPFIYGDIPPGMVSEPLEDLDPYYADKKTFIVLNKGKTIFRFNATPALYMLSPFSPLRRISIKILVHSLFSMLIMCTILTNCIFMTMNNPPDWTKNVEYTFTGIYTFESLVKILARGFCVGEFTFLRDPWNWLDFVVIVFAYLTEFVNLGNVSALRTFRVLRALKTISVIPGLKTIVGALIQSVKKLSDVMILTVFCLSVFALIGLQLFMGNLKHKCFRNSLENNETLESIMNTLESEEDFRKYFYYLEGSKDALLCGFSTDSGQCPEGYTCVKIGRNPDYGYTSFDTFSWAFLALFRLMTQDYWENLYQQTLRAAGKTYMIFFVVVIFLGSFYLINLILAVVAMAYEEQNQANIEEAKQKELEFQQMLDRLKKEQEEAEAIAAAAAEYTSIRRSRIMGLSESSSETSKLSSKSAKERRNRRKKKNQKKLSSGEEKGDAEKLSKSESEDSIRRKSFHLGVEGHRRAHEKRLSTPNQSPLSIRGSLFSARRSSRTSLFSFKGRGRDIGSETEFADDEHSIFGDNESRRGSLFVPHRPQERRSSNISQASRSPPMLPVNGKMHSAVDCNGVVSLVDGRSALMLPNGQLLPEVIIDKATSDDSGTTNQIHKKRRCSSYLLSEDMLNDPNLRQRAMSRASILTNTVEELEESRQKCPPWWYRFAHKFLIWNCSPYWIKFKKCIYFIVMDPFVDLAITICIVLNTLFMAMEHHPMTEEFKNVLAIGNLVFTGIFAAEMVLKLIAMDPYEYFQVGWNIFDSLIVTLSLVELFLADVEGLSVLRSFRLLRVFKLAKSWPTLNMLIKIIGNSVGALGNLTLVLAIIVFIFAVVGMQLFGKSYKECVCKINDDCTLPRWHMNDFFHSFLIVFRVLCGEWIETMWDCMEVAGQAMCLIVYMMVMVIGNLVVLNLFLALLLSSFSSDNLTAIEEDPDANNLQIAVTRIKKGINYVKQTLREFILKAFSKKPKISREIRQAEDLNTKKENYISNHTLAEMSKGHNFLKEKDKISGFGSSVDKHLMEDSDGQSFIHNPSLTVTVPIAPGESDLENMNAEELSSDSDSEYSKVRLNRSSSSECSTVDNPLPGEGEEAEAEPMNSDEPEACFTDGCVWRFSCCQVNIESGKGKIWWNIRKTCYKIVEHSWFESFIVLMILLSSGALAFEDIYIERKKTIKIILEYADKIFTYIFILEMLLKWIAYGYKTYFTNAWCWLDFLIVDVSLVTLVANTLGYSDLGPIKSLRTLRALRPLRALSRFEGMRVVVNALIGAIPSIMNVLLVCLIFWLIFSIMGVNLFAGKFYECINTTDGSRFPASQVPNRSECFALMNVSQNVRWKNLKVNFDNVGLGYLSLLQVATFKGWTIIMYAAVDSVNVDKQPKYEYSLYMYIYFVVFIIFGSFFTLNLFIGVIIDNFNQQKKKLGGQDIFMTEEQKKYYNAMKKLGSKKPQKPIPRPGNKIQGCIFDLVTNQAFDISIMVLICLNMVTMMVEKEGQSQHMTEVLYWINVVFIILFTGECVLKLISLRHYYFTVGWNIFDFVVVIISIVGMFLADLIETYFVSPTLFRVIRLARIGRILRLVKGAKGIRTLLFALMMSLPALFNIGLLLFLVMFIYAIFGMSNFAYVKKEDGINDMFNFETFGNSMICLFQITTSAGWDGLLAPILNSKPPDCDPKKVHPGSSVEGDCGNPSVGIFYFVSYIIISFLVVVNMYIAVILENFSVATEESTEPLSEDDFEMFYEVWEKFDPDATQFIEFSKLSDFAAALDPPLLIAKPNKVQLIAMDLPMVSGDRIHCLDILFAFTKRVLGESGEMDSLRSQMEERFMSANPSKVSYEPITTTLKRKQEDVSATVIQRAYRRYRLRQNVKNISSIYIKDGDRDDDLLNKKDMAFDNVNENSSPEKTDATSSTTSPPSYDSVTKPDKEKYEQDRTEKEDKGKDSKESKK

| IC50 [nM] | Structure (SMILES) |
| --- | --- |
| 100 | COc1cc(F)ccc1CN1C(=O)c2ccccc2C1C(=O)Nc1c(C)cccc1C (stereo not shown) [Example 38, N-(2,6-dimethylphenyl)-2-(4-fluoro-2-methoxybenzyl)-3-oxoisoindoline-1-carboxamide] |
| 251 | COc1ccccc1CN1C(=O)c2ccccc2C1C(=O)Nc1c(Cl)cccc1Cl (stereo not shown) [Example 16, N-(2,6-dichlorophenyl)-2-(2-methoxybenzyl)-3-oxoisoindoline-1-carboxamide] |
| 316 | COc1ccccc1CN1C(=O)c2ccccc2C1C(=O)Nc1c(C)cccc1Cl (stereo not shown) [Example 2, N-(2-chloro-6-methylphenyl)-2-(2-methoxybenzyl)-3-oxoisoindoline-1-carboxamide] |
| 200 | Cc1cccc(C)c1NC(=O)C1c2ccccc2C(=O)N1CCOc1cc(C(F)(F)F)ccc1F (stereo not shown) [Example 15, N-(2,6-dimethylphenyl)-2-{2-[2-fluoro-5-(trifluoromethyl)phenoxy]ethyl}-3-oxoisoindoline-1-carboxamide] |
